Assay results: ChEMBL document CHEMBL4376837, “New Dual Small Molecules for Alzheimer's Disease Therapy Combining Histamine H3 Receptor (H3R) Antagonism and Calcium Channels Blockade with Additional Cholinesterase Inhibition” (J Med Chem, 2019)
The source made the active and inactive calls. No cut-off for these calls is given here.

Assays:
[1] = Antioxidant activity assessed as Trolox equivalents incubated for 15 mins by fluorescein based ORAC-FL assay; assay type: functional
[2] = molecular target: Histamine H3 receptor (Homo sapiens, UniProt Q9Y5N1); assay: Displacement of [3H]-N-alpha-methylhistamine from human H3 receptor expressed in HEK293 cell membranes incubated for 60 mins by scintillation counting method; parameters: concentration or dose not given beside the values
Histamine H3 receptor, sequence (Q9Y5N1 whole entry): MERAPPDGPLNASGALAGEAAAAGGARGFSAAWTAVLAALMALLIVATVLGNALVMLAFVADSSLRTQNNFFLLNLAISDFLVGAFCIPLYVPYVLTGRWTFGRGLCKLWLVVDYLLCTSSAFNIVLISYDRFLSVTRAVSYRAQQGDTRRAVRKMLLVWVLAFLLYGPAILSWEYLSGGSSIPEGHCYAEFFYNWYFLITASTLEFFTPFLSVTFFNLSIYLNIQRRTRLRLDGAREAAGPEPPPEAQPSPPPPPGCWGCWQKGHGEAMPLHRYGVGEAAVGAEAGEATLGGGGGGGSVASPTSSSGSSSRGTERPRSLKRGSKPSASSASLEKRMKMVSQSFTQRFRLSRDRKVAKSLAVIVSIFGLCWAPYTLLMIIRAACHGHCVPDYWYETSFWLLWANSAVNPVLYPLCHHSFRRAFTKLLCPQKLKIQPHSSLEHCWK

[3] = Inhibition of human recombinant AChE using acetylthiocholine iodide substrate by Ellman's protocol based assay
[4] = system: Mus musculus; assay: Neuroprotective activity in mouse model of LPS-induced induced memory impairment assessed as improvement in discrimination index at 1 mg/kg, ip by novel object recognition test; assay type: functional, organism-based
[5] = molecular target: Voltage-gated L-type calcium channel (Homo sapiens, UniProt Q13936+Q13698+Q01668+O60840); assay: Inhibition of voltage-dependent L-type calcium channel in 70 mM K+-induced human SH-SY5Y cells assessed as blocking of depolarization-induced Ca2+ uptake by Fluo-4/AM dye based fluorescence microplate reader assay; assay type: cell-based
[6] = molecular target: Cholinesterase (Homo sapiens, UniProt P06276); assay: Inhibition of BuChE in human plasma using butyrylthiocholine iodide substrate by Ellman's protocol based assay; assay type: cell-free
Cholinesterase, sequence (P06276 whole entry): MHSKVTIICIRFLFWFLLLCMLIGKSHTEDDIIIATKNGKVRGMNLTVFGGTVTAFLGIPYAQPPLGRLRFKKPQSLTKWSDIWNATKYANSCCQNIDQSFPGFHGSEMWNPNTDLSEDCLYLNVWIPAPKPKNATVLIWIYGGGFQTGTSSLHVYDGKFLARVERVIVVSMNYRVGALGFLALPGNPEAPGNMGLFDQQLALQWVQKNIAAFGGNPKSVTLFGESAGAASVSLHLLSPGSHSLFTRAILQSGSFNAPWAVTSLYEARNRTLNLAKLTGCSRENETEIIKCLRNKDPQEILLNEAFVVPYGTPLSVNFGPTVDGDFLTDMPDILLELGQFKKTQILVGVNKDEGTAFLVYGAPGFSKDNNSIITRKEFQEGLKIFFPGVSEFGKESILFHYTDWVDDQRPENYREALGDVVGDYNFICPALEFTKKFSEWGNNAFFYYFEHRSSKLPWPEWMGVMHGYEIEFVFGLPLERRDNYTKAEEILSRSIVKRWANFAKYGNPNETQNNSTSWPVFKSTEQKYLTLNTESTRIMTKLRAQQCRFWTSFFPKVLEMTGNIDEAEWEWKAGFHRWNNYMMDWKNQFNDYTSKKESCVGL

[7] = system: SH-SY5Y; assay: Neuroprotective activity against okadaic acid-induced cytotoxicity in human SH-SY5Y cells assessed as protection against cell death at 1 uM incubated for 24 hrs by MTT assay relative to control; assay type: functional
[8] = system: SH-SY5Y; assay: Neuroprotective activity against Rotenone/Oligomycin A-induced cytotoxicity in human SH-SY5Y cells assessed as protection against cell death at 1 uM incubated for 24 hrs by MTT assay relative to control; assay type: functional
[9] = Permeability at 100 uM by PAMPA method
[10] = system: SH-SY5Y; assay: Neuroprotective activity against Rotenone/Oligomycin A-induced cytotoxicity in human SH-SY5Y cells assessed as protection against cell death at 0.3 uM incubated for 24 hrs by MTT assay relative to control; assay type: functional
[11] = system: SH-SY5Y; assay: Neuroprotective activity against okadaic acid-induced cytotoxicity in human SH-SY5Y cells assessed as protection against cell death at 0.1 uM incubated for 24 hrs by MTT assay relative to control; assay type: functional
[12] = system: SH-SY5Y; assay: Neuroprotective activity against Rotenone/Oligomycin A-induced cytotoxicity in human SH-SY5Y cells assessed as protection against cell death at 0.1 uM incubated for 24 hrs by MTT assay relative to control; assay type: functional
[13] = molecular target: Histamine H4 receptor (Homo sapiens, UniProt Q9H3N8); assay: Antagonist activity at human H4 receptor expressed in CHO-K1 cells co-expressing G protein alpha16 assessed as inhibition of histamine-induced calcium mobilization incubated for 16 hrs by aequorin-based functional assay; assay type: cell-based
Histamine H4 receptor, sequence (Q9H3N8 whole entry): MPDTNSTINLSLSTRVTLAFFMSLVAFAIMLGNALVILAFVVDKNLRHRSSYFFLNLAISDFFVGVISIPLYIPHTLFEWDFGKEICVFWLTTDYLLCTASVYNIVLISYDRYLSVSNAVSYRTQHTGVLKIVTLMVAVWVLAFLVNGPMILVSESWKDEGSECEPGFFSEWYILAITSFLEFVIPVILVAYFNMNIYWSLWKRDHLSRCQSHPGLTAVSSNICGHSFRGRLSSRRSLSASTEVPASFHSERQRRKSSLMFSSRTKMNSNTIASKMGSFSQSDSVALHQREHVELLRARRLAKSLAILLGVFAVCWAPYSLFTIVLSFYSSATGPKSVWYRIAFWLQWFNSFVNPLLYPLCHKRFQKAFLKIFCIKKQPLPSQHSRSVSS

[14] = system: Mus musculus; assay: Neuroprotective activity in mouse model of LPS-induced induced memory impairment assessed as improvement in discrimination index at 10 mg/kg, ip by novel object recognition test; assay type: functional, organism-based
[15] = system: SH-SY5Y; assay: Neuroprotective activity against okadaic acid-induced cytotoxicity in human SH-SY5Y cells assessed as protection against cell death at 3 uM incubated for 24 hrs by MTT assay relative to control; assay type: functional
[16] = system: SH-SY5Y; assay: Neuroprotective activity against okadaic acid-induced cytotoxicity in human SH-SY5Y cells assessed as protection against cell death at 0.3 uM incubated for 24 hrs by MTT assay relative to control; assay type: functional
[17] = system: SH-SY5Y; assay: Neuroprotective activity against Rotenone/Oligomycin A-induced cytotoxicity in human SH-SY5Y cells assessed as protection against cell death at 3 uM incubated for 24 hrs by MTT assay relative to control; assay type: functional
[18] = molecular target: Histamine H1 receptor (Homo sapiens) (UniProt P35367); assay: Displacement of [3H]-Pyrilamine from human H1 receptor expressed in CHO-K1 cell membranes incubated for 60 mins by scintillation counting method
Histamine H1 receptor (Homo sapiens), sequence (P35367 whole entry): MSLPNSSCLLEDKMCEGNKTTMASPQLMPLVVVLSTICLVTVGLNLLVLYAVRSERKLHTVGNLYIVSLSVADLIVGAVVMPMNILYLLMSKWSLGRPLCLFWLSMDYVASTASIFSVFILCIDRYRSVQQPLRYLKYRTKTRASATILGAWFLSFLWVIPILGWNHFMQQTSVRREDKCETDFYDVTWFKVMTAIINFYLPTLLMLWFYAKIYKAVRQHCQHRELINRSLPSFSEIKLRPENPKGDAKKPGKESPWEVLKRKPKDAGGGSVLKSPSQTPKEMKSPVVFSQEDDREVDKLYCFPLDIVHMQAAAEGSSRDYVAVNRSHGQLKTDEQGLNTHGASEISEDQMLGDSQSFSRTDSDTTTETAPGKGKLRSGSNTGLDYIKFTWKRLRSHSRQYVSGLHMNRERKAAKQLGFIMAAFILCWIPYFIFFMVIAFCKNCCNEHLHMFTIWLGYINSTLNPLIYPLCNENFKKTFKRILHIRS

[19] = system: Aorta; assay: Vasodilating activity in Wistar rat endothelium-denuded aortic rings preconstricted with 100 mM KCl assessed as vasorelaxation at 10 nM relative to control; parameters: scale not given: the % may be the effect or the level left; conditions: 0.01 µM
[20] = system: Aorta; assay: Vasodilating activity in Wistar rat endothelium-denuded aortic rings preconstricted with 100 mM KCl assessed as vasorelaxation at 0.1 nM relative to control; parameters: scale not given: the % may be the effect or the level left; conditions: 0.0001 µM
[21] = system: Aorta; assay: Vasodilating activity in Wistar rat endothelium-denuded aortic rings preconstricted with 100 mM KCl assessed as vasorelaxation at 1 nM relative to control; parameters: scale not given: the % may be the effect or the level left; conditions: 0.001 µM

Row | SMILES | Activity [1] | inhibition [2] | inhibition [3] | Ki [2] | also measured
1 | CCOC(=O)C1=C(C)NC(C)=C(C(=O)OCC)C1c1ccc(OCCCN2CCCC2)c(OC)c1 | 2.3 equiv | 23% | inactive |  | 
2 | COc1cc2c(cc1OC)C(=O)C(CC1CCN(Cc3ccccc3)CC1)C2 (stereo not given) |  |  |  |  | Activity [4]: Active
3 | CCOC(=O)C1=C(C)NC(C)=C(C(=O)OCC)C1c1ccc(OCCN2CCCCC2)c(Br)c1 | 2.2 equiv | 37% | inactive |  | IC50 [5]: 2800 nM
4 | CCOC(=O)C1=C(C)NC(C)=C(C(=O)OCC)C1c1ccc(OCCCN2CCCCC2)c(OC)c1 | 2.3 equiv | 20% | inactive |  | 
5 | CCOC(=O)C1=C(C)NC(C)=C(C(=O)OCC)C1c1ccc(OCCCN2CCCC2)c(OCC)c1 | 2.8 equiv | 19% | inactive |  | 
6 | CCOC(=O)C1=C(C)NC(C)=C(C(=O)OCC)C1c1ccc(OCCCCN2CCCC2)cc1 | 3.3 equiv |  | inactive | 60 nM | IC50 [6]: 7220 nM
7 | CCOC(=O)C1=C(C)NC(C)=C(C(=O)OCC)C1c1ccc(OCCCN2CCCCC2)cc1 | 2.3 equiv |  | inactive | 40 nM | 
8 | COc1cc(/C=C/C(=O)O)ccc1O | 3.7 equiv |  |  |  | 
9 | CCOC(=O)C1=C(C)NC(C)=C(C(=O)OCC)C1c1ccc(OCCN2CCCCCC2)c(Br)c1 | 3 equiv | 8% | inactive |  | IC50 [5]: 1500 nM
10 | CCOC(=O)C1=C(C)NC(C)=C(C(=O)OCC)C1c1ccc(OCCCN2CCCC2)cc1 | 3.5 equiv |  | inactive | 83 nM | 
11 | CCOC(=O)C1=C(C)NC(C)=C(C(=O)OCC)C1c1ccc(OCCN2CCCCC2)cc1 | 2.4 equiv | 18% | inactive |  | 
12 | CCOC(=O)C1=C(C)NC(C)=C(C(=O)OCC)C1c1ccc(OCCCN2CCCCC2)c(OCC)c1 | 2.4 equiv |  | inactive | 1620 nM | 
13 | CCOC(=O)C1=C(C)NC(C)=C(C(=O)OCC)C1c1ccc(OCCN2CCCCCC2)c(Cl)c1 | 2.4 equiv | 19% | inactive |  | IC50 [5]: 4000 nM
14 | CCOC(=O)C1=C(C)NC(C)=C(C(=O)OCC)C1c1ccc(OCCCCN2CCCCC2)cc1 | 2.2 equiv | 49% | inactive |  | 
15 | CCOC(=O)C1=C(C)NC(C)=C(C(=O)OCC)C1c1ccc(OCCCCCN2CCCC2)cc1 | 2.8 equiv |  | inactive | 425 nM | Activity [7]: 18.5%; Activity [8]: 52.8%; Papp at 100 µM [9]: 10 ×10⁻⁶ cm/s; Activity [10]: 48.9%; Activity [11]: 7.21%; Activity [12]: 35.5%; IC50 [6]: 6070 nM; inhibition [13]: inactive; Activity [14]: inactive; Activity [15]: 16%; Activity [16]: 8.81%; Activity [17]: 35.4%; inhibition [18]: inactive
16 | CCOC(=O)C1=C(C)NC(C)=C(C(=O)OCC)C1c1ccc(OCCN2CCCCC2)c(OC)c1 | 3.9 equiv | < 5% | inactive |  | IC50 [5]: 26000 nM
17 | COC(=O)C1=C(C)NC(C)=C(C(=O)OC)C1c1ccccc1[N+](=O)[O-] [NIFEDIPINE] |  |  |  |  | Activity ([19]; Aorta): 81%; Activity ([20]; Aorta): 12%; Activity ([21]; Aorta): 37%
18 | CCOC(=O)C1=C(C)NC(C)=C(C(=O)OCC)C1c1ccc(OCCCCCN2CCCCC2)cc1 | 3.6 equiv |  | inactive | 565 nM | Activity [19]: 5%; Activity [20]: Non-Toxic; Activity [7]: 41.8%; Activity [8]: 64.8%; Papp at 100 µM [9]: 8.6 ×10⁻⁶ cm/s; Activity [10]: 35.1%; Activity [11]: inactive; Activity [12]: 17%; IC50 [6]: 7830 nM; IC50 [13]: 1400 nM; Activity [21]: Non-Toxic; Activity [14]: Active; Activity [15]: 20.9%; Activity [16]: inactive; Activity [17]: 49.9%; inhibition [18]: inactive
19 | COc1ccc2[nH]cc(CCNC(C)=O)c2c1 [MELATONIN] |  |  |  |  | Activity [11]: 76%; Activity [12]: 58.2%
20 | CCOC(=O)C1=C(C)NC(C)=C(C(=O)OCC)C1c1ccc(OCCN2CCCCC2)c(Cl)c1 | 2.5 equiv | 17% | inactive |  | IC50 [5]: 2900 nM
